Tests used:
[1] = molecular target: T1, p38 MAPKα isoform (MAPK14) (Homo sapiens, UniProt Q16539); test: p38 MAPKα enzyme inhibition (Z-LYTE FRET); type: biochemical; details: Table 2B, unit inferred; read-out: p38 MAPKα (Enzyme Profile)
T1 construct: purchased Life Technologies
Procedure, shortened: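 Recombinant human MAPK14 (40 ng/mL stock) was preincubated 2 h at RT with compound (stock dilutions 0.0012-40 μg/mL). The Z-LYTE FRET read-out used a MAPKAP-K2-derived peptide, and protease development for 1 h cleaved only non-phosphorylated peptide. Phosphorylation was calculated from the coumarin/fluorescein emission ratio.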

p38MAPKγ (MAPK12) = molecular target: T2, p38MAPKγ (MAPK12) (Homo sapiens, UniProt P53778); test: p38 MAPKγ enzyme inhibition (Z-LYTE FRET); type: biochemical; details: Table 2B, unit inferred; read-out: p38 MAPKγ (Enzyme Profile)
T2 construct: purchased Life Technologies
T2 sequence (P53778 1-367): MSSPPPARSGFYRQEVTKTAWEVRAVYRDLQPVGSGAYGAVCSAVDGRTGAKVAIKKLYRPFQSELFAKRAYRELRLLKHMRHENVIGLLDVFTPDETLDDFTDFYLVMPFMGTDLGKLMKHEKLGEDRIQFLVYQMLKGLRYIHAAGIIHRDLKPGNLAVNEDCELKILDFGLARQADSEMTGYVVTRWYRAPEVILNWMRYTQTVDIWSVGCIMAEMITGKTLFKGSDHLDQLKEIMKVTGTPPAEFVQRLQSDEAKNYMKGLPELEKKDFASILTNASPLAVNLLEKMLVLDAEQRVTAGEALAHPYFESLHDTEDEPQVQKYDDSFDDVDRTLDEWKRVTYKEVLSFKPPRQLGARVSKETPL
Procedure, shortened: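 Z-LYTE read-out: after 1 h protease development, only non-phosphorylated peptide is cleaved, and the donor/acceptor (coumarin/fluorescein) ratio reports phosphorylation. Beforehand, enzyme and compound (stock concentrations 0.0012–40 μg/mL) were preincubated 2 h at RT, then the kinase reaction ran 1 h at RT with peptide and ATP (8 μM and 400 μM stocks).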

T1 sequence (Q16539 whole entry, canonical isoform): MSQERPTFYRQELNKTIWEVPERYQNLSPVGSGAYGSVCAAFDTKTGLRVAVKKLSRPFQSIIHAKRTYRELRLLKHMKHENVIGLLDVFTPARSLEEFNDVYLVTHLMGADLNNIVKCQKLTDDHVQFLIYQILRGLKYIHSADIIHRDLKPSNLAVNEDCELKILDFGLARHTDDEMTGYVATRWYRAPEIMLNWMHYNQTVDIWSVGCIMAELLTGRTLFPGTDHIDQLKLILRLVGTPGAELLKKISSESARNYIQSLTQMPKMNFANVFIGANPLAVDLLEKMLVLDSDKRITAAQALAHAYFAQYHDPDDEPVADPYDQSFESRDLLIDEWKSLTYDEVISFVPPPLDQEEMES

IC50 [1] [nM]	IC50 (p38MAPKγ (MAPK12)) [nM]	SMILES
17	250	COCc1cnc(Nc2cc(COc3ccc(NC(=O)Nc4cc(C(C)(C)C)nn4-c4cccc(F)c4)c4ccccc34)ccn2)cn1 [Example 203, 1-(3-(tert-butyl)-1-(3-fluorophenyl)-1H-pyrazol-5-yl)-3-(4-((2-((5-(methoxymethyl)pyrazin-2-yl)amino)pyridin-4-yl)methoxy)naphthalen-1-yl) urea]
16	330	CNC(=O)c1cnc(Nc2cc(COc3ccc(NC(=O)Nc4cc(C(C)(C)C)nn4-c4cccc(C)c4)c4ccccc34)ccn2)cn1 [Example 204, 5-((4-(((4-(3-(3-(tert-butyl)-1-(m-tolyl)-1H-pyrazol-5-yl)ureido)naphthalen-1-yl)oxy)methyl)pyridin-2-yl)amino)-N-methylpyrazine-2-carboxamide]
13	263	COCCN(C)C(=O)c1cnc(Nc2cc(COc3ccc(NC(=O)Nc4cc(C(C)(C)C)nn4-c4cccc(C)c4)c4ccccc34)ccn2)cn1 [Example 205, 5-((4-(((4-(3-(3-(tert-butyl)-1-(m-tolyl)-1H-pyrazol-5-yl)ureido)naphthalen-1-yl)oxy)methyl)pyridin-2-yl)amino)-N-(2-methoxyethyl)-N-methylpyrazine-2-carboxamide]
22	517	COC1CCN(C(=O)c2cnc(Nc3cc(COc4ccc(NC(=O)Nc5cc(C(C)(C)C)nn5-c5cccc(C)c5)c5ccccc45)ccn3)cn2)CC1 [Example 206, 1-(3-(tert-butyl)-1-(m-tolyl)-1H-pyrazol-5-yl)-3-(4-((2-((5-(4-methoxypiperidine-1-carbonyl)pyrazin-2-yl)amino)pyridin-4-yl)methoxy)naphthalen-1-yl)urea]
30	2390	COc1ccc(-n2nc(C(C)(C)C)cc2NC(=O)Nc2ccc(OCc3ccnc(Nc4cnc(C)c(C)n4)c3)c3ccccc23)cn1 [Example 207, 1-(3-(tert-butyl)-1-(6-methoxypyridin-3-yl)-1H-pyrazol-5-yl)-3-(4-((2-((5,6-dimethylpyrazin-2-yl)amino)pyridin-4-yl)methoxy)naphthalen-1-yl)urea]
50	> 15200	COc1cc(-n2nc(C(C)(C)C)cc2NC(=O)Nc2ccc(OCc3ccnc(Nc4cnc(C)c(C)n4)c3)c3ccccc23)ccc1C [Example 208, 1-(3-(tert-butyl)-1-(3-methoxy-4-methylphenyl)-1H-pyrazol-5-yl)-3-(4-((2-((5,6-dimethylpyrazin-2-yl)amino)pyridin-4-yl)methoxy)naphthalen-1-yl) urea]
6.5	54	COCCNC(=O)Cc1cncc(Nc2cc(COc3ccc(NC(=O)Nc4cc(C(C)(C)C)nn4-c4ccc(C)cc4)c4ccccc34)ccn2)n1 [Example 209, 2-(6-((4-(((4-(3-(3-(tert-butyl)-1-(p-tolyl)-1H-pyrazol-5-yl)ureido)naphthalen-1-yl)oxy)methyl)pyridin-2-yl)amino)pyrazin-2-yl)-N-(2-methoxyethyl)acetamide]
28	509	CCc1cncc(Nc2cc(COc3ccc(NC(=O)Nc4cc(C(C)(C)C)nn4-c4ccc(COC)cc4)c4ccccc34)ccn2)n1 [Example 210, 1-(3-(tert-butyl)-1-(4-(methoxymethyl)phenyl)-1H-pyrazol-5-yl)-3-(4-((2-((6-ethylpyrazin-2-yl)amino)pyridin-4-yl)methoxy)naphthalen-1-yl)urea]
60	582	CCc1cncc(Nc2cc(COc3ccc(NC(=O)Nc4cc(C(C)(C)C)nn4-c4cc(F)cc(OC)c4)c4ccccc34)ccn2)n1 [Example 211, 1-(3-(tert-butyl)-1-(3-fluoro-5-methoxyphenyl)-1H-pyrazol-5-yl)-3-(4-((2-((6-ethylpyrazin-2-yl)amino)pyridin-4-yl)methoxy)naphthalen-1-yl)urea]
89	> 15600	CCc1cncc(Nc2cc(COc3ccc(NC(=O)Nc4cc(C(C)(C)C)nn4-c4cc(C)cc(C)c4)c4ccccc34)ccn2)n1 [Example 212, 1-(3-(tert-butyl)-1-(3,5-dimethylphenyl)-1H-pyrazol-5-yl)-3-(4-((2-((6-ethyl-pyrazin-2-yl)amino)pyridin-4-yl)methoxy)naphthalen-1-yl)urea]
36	735	CCc1cncc(Nc2cc(COc3ccc(NC(=O)Nc4cc(C(C)(C)C)nn4-c4ccc(F)cc4)c4ccccc34)ccn2)n1 [Example 213, 1-(3-(tert-butyl)-1-(4-fluoro-phenyl)-1H-pyrazol-5-yl)-3-(4-((2-((6-ethylpyrazin-2-yl)amino)pyridin-4-yl)methoxy)naphthalen-1-yl)urea]
31	1930	Cc1ccc(-n2nc(C(C)(C)C)cc2NC(=O)Nc2ccc(OCc3ccnc(Nc4cnc(C(=O)N5C[C@@H](C)O[C@@H](C)C5)cn4)c3)c3ccccc23)cc1 [Example 214, 1-(3-(tert-butyl)-1-(p-tolyl)-1H-pyrazol-5-yl)-3-(4-((2-((5-((2S,6R)-2,6-dimethyl-morpholine-4-carbonyl)pyrazin-2-yl)amino)pyridin-4-yl)methoxy)naphthalen-1-yl)urea]
15	> 14300	CC(C)(C)c1cc(NC(=O)Nc2ccc(OCc3ccnc(Nc4cnc(C(=O)N5CCCC5)cn4)c3)c3ccccc23)n(-c2ccc(F)cc2)n1 [Example 215, 1-(3-(tert-butyl)-1-(4-fluoro-phenyl)-1H-pyrazol-5-yl)-3-(4-((2-((5-(pyrrolidine-1-carbonyl)pyrazin-2-yl)amino)pyridin-4-yl)methoxy)naphthalen-1-yl)urea]
15	401	COc1cccc(-n2nc(C(C)(C)C)cc2NC(=O)Nc2ccc(OCc3ccnc(Nc4cnc(C(=O)N5CCCC5)cn4)c3)c3ccccc23)c1 [Example 216, 1-(3-(tert-butyl)-1-(3-methoxyphenyl)-1H-pyrazol-5-yl)-3-(4-((2-((5-(pyrrolidine-1-carbonyl)pyrazin-2-yl)amino)pyridin-4-yl)methoxy)naphthalen-1-yl)urea]
17	424	COCc1ccc(-n2nc(C(C)(C)C)cc2NC(=O)Nc2ccc(OCc3ccnc(Nc4cnc(C(=O)N5CCCC5)cn4)c3)c3ccccc23)cc1 [Example 217, 1-(3-(tert-butyl)-1-(4-(methoxymethyl)phenyl)-1H-pyrazol-5-yl)-3-(4-((2-((5-(pyrrolidine-1-carbonyl)pyrazin-2-yl)amino)pyridin-4-yl)methoxy)naphthalen-1-yl)urea]
28	> 14100	Cc1cc(C)cc(-n2nc(C(C)(C)C)cc2NC(=O)Nc2ccc(OCc3ccnc(Nc4cnc(C(=O)N5CCCC5)cn4)c3)c3ccccc23)c1 [Example 218, 1-(3-(tert-butyl)-1-(3,5-dimethylphenyl)-1H-pyrazol-5-yl)-3-(4-((2-((5-(pyrrolidine-1-carbonyl)pyrazin-2-yl)amino)pyridin-4-yl)methoxy)naphthalen-1-yl)urea]
18	> 14000	COc1ccc(-n2nc(C(C)(C)C)cc2NC(=O)Nc2ccc(OCc3ccnc(Nc4cnc(C(=O)N5CCCC5)cn4)c3)c3ccccc23)cn1 [Example 219, 1-(3-(tert-butyl)-1-(6-methoxypyridin-3-yl)-1H-pyrazol-5-yl)-3-(4-((2-((5-(pyrrolidine-1-carbonyl)pyrazin-2-yl)amino)pyridin-4-yl)methoxy)naphthalen-1-yl)urea]
31	164	COc1cc(F)cc(-n2nc(C(C)(C)C)cc2NC(=O)Nc2ccc(OCc3ccnc(Nc4cnccn4)c3)c3ccccc23)c1 [Example 220, 1-(3-(tert-butyl)-1-(3-fluoro-5-methoxyphenyl)-1H-pyrazol-5-yl)-3-(4-((2-(pyrazin-2-ylamino)pyridin-4-yl)methoxy)naphthalen-1-yl)urea]
81	1270	CCc1cncc(Nc2cc(COc3ccc(NC(=O)Nc4cc(C(C)(C)C)nn4-c4cc(C)cc(OC)c4)c4ccccc34)ccn2)n1 [Example 221, 1-(3-(tert-butyl)-1-(3-methoxy-5-methylphenyl)-1H-pyrazol-5-yl)-3-(4-((2-((6-ethylpyrazin-2-yl)amino)pyridin-4-yl)methoxy)naphthalen-1-yl)urea]
23	175	CCc1cncc(Nc2cc(COc3ccc(NC(=O)Nc4cc(C(C)(C)C)nn4-c4cccc(COC)c4)c4ccccc34)ccn2)n1 [Example 222, 1-(3-(tert-butyl)-1-(3-(methoxymethyl)phenyl)-1H-pyrazol-5-yl)-3-(4-((2-((6-ethylpyrazin-2-yl)amino)pyridin-4-yl)methoxy)naphthalen-1-yl)urea]
11	103	Cc1ccc(-n2nc(C(C)(C)C)cc2NC(=O)Nc2ccc(OCc3ccnc(Nc4cnc(C(=O)N(C)CCCO)cn4)c3)c3ccccc23)cc1 [Example 223, 5-((4-(((4-(3-(3-(tert-butyl)-1-(p-tolyl)-1H-pyrazol-5-yl)ureido)naphthalen-1-yl)oxy)methyl)pyridin-2-yl)amino)-N-(3-hydroxypropyl)-N-methylpyrazine-2-carboxamide]

Reference: US11142515B2, “Pyrazolyl-ureas as kinase inhibitors” (RESPIVERT LIMITED, priority 2014, dated 2021)
